Source: US20240352430A1, “FoF1-ATP SYNTHASE OLIGOMER” (KYOTO UNIVERSITY, priority 2021, published 2024)

Target: T1, FoF1-ATP synthase of cultured cells derived from human (HEK293) (Homo sapiens, UniProt P05496)
T1 construct: fractions containing cultured cell FoF1-ATP synthase obtained by the first centrifugation; endogenous in cells; host or cells: HEK293 (enzyme solubilised with GDN from the mitochondrial inner membrane and fractionated on sucrose density gradients)
Assay: ATP hydrolysis activity, change in absorbance at 340 nm by NADH oxidation
Assay type: biochemical
Text: The FoF1-ATP synthase oligomer of the present invention has, in one embodiment, ATP synthesis activity or hydrolysis activity. These activities can be determined by methods well known to those skilled in the art. For example, ATP synthesis activity can be determined by using a luminescent reaction of the luciferin/luciferase system to determine the generated ATP. In addition, ATP hydrolysis activity can be determined based on absorbance changes at 340 nm by conjugating the hydrolysis reaction of ATP and the oxidation reaction from NADH (nicotinamide adenine dinucleotide) to NAD^+ in the presence of phosphoenolpyruvic acid, pyruvate kinase, and lactate dehydrogenase.
ATP hydrolysis activity of the fractions containing cultured cell FoF1-ATP synthase obtained by the first centrifugation under discontinuous density gradient of sucrose was determined. That is, the hydrolysis reaction of ATP with FoF1-ATP synthase was determined at 20° C. as change in absorbance at 340 nm by oxidation from NADH to NAD^+ conjugated with this reaction.
ATP hydrolysis activity of the samples contained in fraction 6-1 was determined in the same manner as described above in the presence or absence of oligomycin.
ATP hydrolysis activity of the samples collected from fraction 7 containing FoF1-ATP synthase tetramer and dimer was determined in the presence or absence of oligomycin, as in Example 1. If IF1, an endogenous inhibitory protein of mammalian ATP synthase, binds to FoF1-ATP synthase, the enzyme reaction is stopped. In order to release from FoF1-ATP synthase, samples collected from fraction 7 were mixed with 330 mM KCl and 100 mM Tris-HCl (pH 8.2). After incubation for 10 minutes at room temperature, ATP hydrolysis activity was determined. IF1 forms a dimer, binds between two FoF1-ATP synthase dimers, and stops the rotation of F1 present outside the membrane. As a result, ATP synthesis of the enzyme is stopped. Oligomycin binds to Fo of FoF1-ATP synthase and inhibits ATP synthesis.

Molecule | ATP hydrolysis activity of the sample contained in fraction 6-1 in the presence of oligomycin (fraction 6-1 of first discontinuous sucrose density gradient centrifugation, HEK293, 20° C., FIG. 7) | ATP hydrolysis activity of the sample of fraction 7 in the presence of oligomycin (fraction 7 of third continuous sucrose density gradient centrifugation, HEK293, regardless of treatment to release IF1, FIG. 12) | Enzyme inhibition of the ATP synthase contained in fraction 7 by IF1 (fraction 7, third centrifugation, activity compared with and without treatment to release IF1 (330 mM KCl, 100 mM Tris-HCl pH 8.2, 10 minutes), FIG. 12)
CC[C@H]1/C=C/C=C/C[C@@H](C)[C@H](O)[C@@](C)(O)C(=O)[C@@H](C)[C@H](O)[C@@H](C)C(=O)[C@@H](C)[C@H](O)[C@@H](C)/C=C/C(=O)O[C@@H]2[C@H](C)[C@H](CC1)O[C@]1(CC[C@H](C)[C@H](C[C@@H](C)O)O1)[C@H]2C [oligomycin] | inhibited | did not exhibit ATP hydrolysis activity | 
IF1: ATP synthase inhibitory factor subunit 1, an endogenous inhibitory protein of a mammalian ATP synthase (protein, UniProt Q9UII2 26-106, looked up) ATPase inhibitor, …: GSDQSENVDRGAGSIREAGGAFGKREQAEEERYFRAQSREQLAALKKHHEEEIVHHKKEIERLQKEIERHKQKIKMLKHDD |  |  | undergoes enzyme inhibition by IF1
